Measurements published in US20180289655A1, “Methods and Compositions for the Intravenous Administration of Fumarates for the Treatment of Neurological Diseases” (Biogen MA Inc., priority 2015, published 2018).
Counter-ions that a name gives are not always drawn. Like-named read-outs stand apart in the source and are kept apart here.

Tests used:
[1] = MMF exposure in plasma and tissues after DMF PO/IV or MMF IV (LC-MS/MS); type: in vivo, C57BL/6 mice
Description: Aliquots (25 μL) of either plasma or tissue homogenate samples were extracted by protein precipitation with acetonitrile containing 4C13-MMF as the internal standard. For tissue samples, aliquots of homogenization solution (plasma with 12.5 mg/mL of NaF) were added to the tissue samples. The tissue samples were homogenized at 6.5 m/s for 60 seconds on a Fast Prep Tissue Homogenizer prior to protein precipitation. Concentrations of MMF in plasma, brain, jejunum and kidney samples were determined using qualified LC-MS/MS assays in the respective matrices. Data collections and integrations were accomplished using an API 5500 triple quadrupole mass spectrometer with a turbo ion spray interface (AB Sciex, Foster City, Calif.), and Analyst software (version 1.6.1). The peak area ratios of MMF relative to its internal standard were used to construct a standard curve using a quadratic regression with a 1/x^2 weighting. The lower limits of quantitation (LLOQ) were 1 ng/mL for the three tissue assays and 10 ng/mL for the plasma assay, respectively. The performances of the assays were monitored by the precision and accuracy of the standards and quality control samples.
MMF exposure levels were evaluated 10 minutes and 2 hours after dosing, while pharmacodynamic transcriptional responses were analyzed at 2 hours post-dose.
(§1) At the 10-minute time point, 4 animals from each group were sacrificed, with plasma and tissues (brain, jejunum and kidney) collected to determine MMF exposure. Two hours after dosing, the remaining 4 animals were sacrificed, and plasma and tissues were collected. Tissue samples from the 2-hour time point were divided, with half of each sample used for MMF exposure analysis, and half for RNA extraction and qRT-PCR to evaluate the expression of Nrf2 target genes.
MMF exposure levels were evaluated 10 minutes and 2 hours after dosing, while transcriptional pharmacodynamic responses were analyzed at 2 and 6 hours post-dose. A complete blood count (CBC) with differential panel was performed at 10 minutes, 2 hours, and 6 hours post-dose.
(§2) Ten minutes after dosing, 4 animals from each group were sacrificed, and plasma and tissues (brain, kidney, jejunum and spleen) were collected to quantify MMF exposure levels, as well as whole blood to perform CBC. Two hours post-dose, another 4 animals from each group were sacrificed, and plasma, whole blood, and tissues were collected. Tissue samples from the 2-hour time point were split, with half of each sample used for MMF exposure analysis, and half for RNA extraction/qRT-PCR to evaluate the expression of Nrf2 target genes. Six hours after dosing, the last 4 animals from each group were sacrificed, and whole blood and tissues were collected.

[2] = Chemical stability of DMF nano suspension (HPLC); type: physicochemical; conditions: Day 1, room temperature
Description: 5.0 ml of pH5.0 phosphate buffer (Fisher Scientific, Lot No. 100498) were added to the tube. Further, ZrO2 beads (˜10 ml) were also added to the tube. The sample was vortexed in a Fisher Scientific multi-tube vortexer at 2500 rpm for 60 min and the particle size was checked via optical microscopic image. An additional 5.0 ml of pH5 phosphate buffer was added and the sample was further milled overnight. The temperature of the sample was ˜60° C. due to the overnight milling. The particle size was determined via microscopic image and Mastersizer 2000.
The suspension was stored at room temperature and samples were taken at day 1 and day 7. The stability of the samples was examined using HPLC method for chemical stability, PSD and microscopic image (data not provided) for physical stability.

[3] = Solubility of DMF in aqueous media at 37° C.; type: physicochemical; conditions: thermodynamic from solid
Nrf2 target genes = assay: qRT-PCR of Nrf2 target genes, statements over all tested genes; type: in vivo, C57BL/6 mice
Description: For RNA preparation, frozen tissues were placed in 2 mL RNAse-free 96-well blocks with 1.5 mL QIAzol Lysis Reagent (QIAgen) and a 3.2 mm stainless steel bead (BioSpec Products, Bartlesville, Okla.). Tissues were disrupted for four cycles of 45 seconds in a Mini-Beadbeater (Biospec Products). RNA was extracted with chloroform and the aqueous phase was mixed with an equal volume of 70% ethanol. Extracted RNA was applied to RNeasy 96 plates and purified by the spin method according to the manufacturer's protocol (RNeasy 96 Universal Tissue Protocol, QIAgen, Hilden Germany).
Samples were reverse-transcribed into cDNA according to the manufacturer protocols using the High Capacity cDNA Reverse Transcription Kit (Life Technologies, Carlsbad, Calif.) and analyzed by qRT-PCR. Mouse target gene primers and 6-FAM™ dye-labeled TaqMan® MGB™ probes (Life Technologies) were used. Reactions containing 100 ng of cDNA, 900 nM of each primer, and 250 nM TaqMan probes were cycled on a QuantStudio 12 k-flex system (Life Technologies) once for 10 minutes at 95° C., followed by 40 cycles of 95° C. for 10 seconds and 60° C. for 1 minute. All samples were measured in triplicate with Gapdh as a normalizing gene. Taqman primer/probe sets from Life Technologies included: Akr1b8 (Mm00484314_m1); Gapdh (Mm03302249_g1); Gclc (Mm00802655_m1); Hmox1 (Mm00516005_m1); Nqo1 (Mm01253561_m1); and Osgin1 (Mm00660947_m1). Comparative CT method was used to calculate fold changes and samples were normalized relative to time-matched vehicle control.
as §1, §2
A CBC with differential panel was performed at 10 minutes post-last dose via facial vein bleeding, and at 2 hours after the last dose, pharmacodynamic Nrf2 transcriptional responses were analyzed in tissues from the same animals. Histopathology was also performed on regions of the tail in a pilot toxicology study.

[4] = Study 3, DMF IV 30 mg/kg once daily x5, 2 hours after dosing

In the case of COC(=O)/C=C/C(=O)OC [DMF, dimethyl fumarate], the “MMF level in plasma” value ([1]; Study 1, IV DMF, 2 hours) is reported as “no detectable MMF in plasma”, the “MMF level in any tissue” value ([1]; Study 1, PO or IV DMF, 2 hours) is reported as “no detectable MMF in any tissue” and the “MMF level in plasma or any tissues” value ([1]; Study 2, 2 hours, DMF 30 mg/kg or MMF 27.08 mg/kg IV) is reported as “no detectable MMF in plasma or in any tissues”. The “MMF levels in kidney, jejunum and spleen, DMF versus MMF” value ([1]; Study 2, IV, 10 minutes) was “no significant differences were noted in MMF levels”, the “Area % of DMF remaining” value [2] was 99.9 area % and the solubility at 24 h ([3]; pH 2 citrate buffer, pH 2, aqueous buffer, pH 2 Citrate Buffer, pH 1.93, read-out: Solubility) was 3770 µg/mL. For the same compound, the solubility at 24 h ([3]; pH 2 citrate buffer, pH 2, aqueous buffer, pH 2 Citrate Buffer, read-out: Solubility Description) was 1000 to 10000 µg/mL, the solubility at 24 h ([3]; pH 4 citrate buffer, pH 4, aqueous buffer, pH 4 Citrate Buffer, pH 3.89, read-out: Solubility) was 3320 µg/mL and the solubility at 24 h ([3]; pH 4 citrate buffer, pH 4, aqueous buffer, pH 4 Citrate Buffer, read-out: Solubility Description) was 1000 to 10000 µg/mL. The solubility at 24 h ([3]; pH 6 citrate buffer, pH 6, aqueous buffer, pH 6 Citrate Buffer, pH 6.01, read-out: Solubility) was 3470 µg/mL, the solubility at 24 h ([3]; pH 6 citrate buffer, pH 6, aqueous buffer, pH 6 Citrate Buffer, read-out: Solubility Description) was 1000 to 10000 µg/mL and the solubility at 24 h ([3]; pH 8 borate buffer, pH 8, aqueous buffer, pH 8 Borate Buffer, pH 5.44, read-out: Solubility) was 4020 µg/mL. For the same compound, the solubility at 24 h ([3]; pH 8 borate buffer, pH 8, aqueous buffer, pH 8 Borate Buffer, read-out: Solubility Description) was 1000 to 10000 µg/mL, the solubility at 24 h ([3]; pH 10 borate buffer, pH 10, aqueous buffer, pH 10 Borate Buffer, pH 5.49, read-out: Solubility) was 3570 µg/mL and the solubility at 24 h ([3]; pH 10 borate buffer, pH 10, aqueous buffer, pH 10 Borate Buffer, read-out: Solubility Description) was 1000 to 10000 µg/mL. For the same compound, the solubility at 24 h ([3]; simulated gastric fluid (SGF, without pepsin), pH 6.9, simulated gastric fluid, SGF (without pepsin), pH 6.90, read-out: Solubility) was 2950 µg/mL, the solubility at 24 h ([3]; simulated gastric fluid without pepsin, pH 1.2, simulated gastric fluid, SGF (without pepsin), read-out: Solubility Description) was 1000 to 10000 µg/mL and the solubility at 24 h ([3]; simulated intestinal fluid (SIF, without pancreatin), pH 1.2, fassgf or other biorelevant, SIF (without pancreatin), pH 1.20, read-out: Solubility) was 3110 µg/mL. It also gave a solubility at 24 h ([3]; simulated intestinal fluid without pancreatin, pH 6.9, fassgf or other biorelevant, SIF (without pancreatin), read-out: Solubility Description) of 1000 to 10000 µg/mL, a solubility at 24 h ([3]; water, pH 5.2, water, Water, pH 5.20, read-out: Solubility) of 2840 µg/mL and a solubility at 24 h ([3]; water, pH 5.2, water, Water, read-out: Solubility Description) of 1000 to 10000 µg/mL. The “Changes in gene expression, jejunum” value (Nrf2 target genes; Study 1, DMF IV 17.5 mg/kg, 2 hours) was “No significant changes in gene expression”, the “Changes in transcript levels, kidney” value (Nrf2 target genes; Study 2, DMF IV 30 mg/kg, 2 hours) was “No significant changes” and the “Genes significantly increased, brain” value (Nrf2 target genes; [4]) was “significant increase was observed in brain Hmox1, Osgin1, and Gclc levels”. The “Genes significantly increased, kidney and jejunum” value (Nrf2 target genes; [4]) was “Significant increases were also observed in Akr1b8, Nqo1, and Osgin1 levels” and the “Other transcripts in tissues analyzed” value (Nrf2 target genes; Study 3, DMF IV 30 mg/kg once daily x5, 2 hours post-last dose) was “generally unaffected”.
